# “Also recorded” adds a separate entry of the source.
# Experiments:
# [1] = tested on: retinal ganglion cells (RGC); experiment: NMDA excitotoxicity mouse model: RGC count by retinal Flatmount; format: in vivo, C57BL/6)
# Protocol: This study was for evaluating the effect of adeno-associated viral (AAV) vectors on retinal ganglion cell protection following damage caused via N-methyl-D-aspartate (NMDA) administration in the mouse. […] Groups 7 and 8 were added to test a higher concentration of MK-801. […] This study was conducted in wild type mice (Mus musculus, C57BL/6).
# 300 μL of the 5 mM NMDA stock was combined with 300 μL of sterile PBS and 1 μL as injected on Day 0 for a final concentration of 2.5 mM NMDA.
# 300 μL of the 5 mM NMDA stock as combined with 300 μL of sterile-filtered MK-801 and 1 μL was injected on Day 0 for a final concentration of 2.5 mM NMDA/100 μM MK-801.
# 300 μL of the 5 mM NMDA stock was combined with 300 μL of sterile PBS and 1 μL was injected on Day 0 for a final concentration of 2.5 mM NMDA.
# On Day −28 or Day 0 based on the experimental design, mice were given buprenorphine 0.01-0.05 mg/kg subcutaneously (SQ). Animals were then tranquilized for the intravitreal injections with ketamine/xylazine or inhaled isoflurane and one drop of 0.5% proparacaine HCl was applied to both eyes. The conjunctiva was gently grasped with Dumont #4 forceps, and the injection was made using a 33 G needle and a Hamilton syringe. After dispensing the syringe contents, the syringe needle was slowly withdrawn. Following the injection procedure, 1 drop of Ofloxacin ophthalmic solution was applied topically to the ocular surface with eye lube.
# Eyes were enucleated and immediately fixed in 4% paraformaldehyde in phosphate-buffered saline (PBS) and stored overnight at 4° C. The following day, the eyes were transferred to cold immunocytochemistry (ICC) buffer (PBS containing 0.5% BSA and 0.2% Tween 20) until processing. Using a dissecting microscope, the eye was carefully trimmed of extraneous tissue at the limbus and, using fine curved scissors, the anterior chamber was removed. Retinas in the eye cup were rinsed with cold ICC buffer. Eye cups were placed in cold ICC buffer containing 1/100 rat anti-CNP36 (Groups 3-6 only; resuspended at 0.5 mg/mL in PBS) for 3 hours at 4° C. Eye cups were then washed extensively and stained with 1/200 donkey anti-rat Cy3 and 1/1,000 DAPI for 2-3 hours at 4° C. Groups 1 and 2 were stained with 1/500 TUJ-1 and 1/1000 DAPI, while Groups 7 and 8 were incubated with 1/1,000 DAPI alone. Eye cups were washed extensively but gently with cold ICC buffer. Using fine curved scissors and an eyelash knife, the retina was detached from the optic nerve head and removed from the RPE/choroid. Radial cuts were then made toward the center and retinas were flat mounted, covered, and sealed. 2D fluorescent microscopy images were acquired using an Olympus Bx63 upright fluorescent microscope. […] Images at 20× were acquired in 4 quadrants and a central 248.1×325.7 μm region was analyzed for RGC counts using Olympus cellSens and ImageJ software.
# Groups 1 and 2 were stained with DAPI and TUJ-1 and images were captured at 20× (FIG. 10A). RGCs were counted in four quadrants, and cells/mm2 were averaged across each group.
# Groups 3-8 were stained for DAPI and four images were captured for each retina at 20× approximately 600 μm from the optic nerve head. RGCs were counted in a central 248.1×325.7 μm region and cells/mm2 were averaged over each group (FIG. 10C).
# The statistical analyses were performed on the Group 3-8 RGC data (one-way ANOVA followed by multiple comparisons using the Dunnett statistical hypothesis comparison).
# [2] = tested on: retinal ganglion cells (RGC); experiment: NMDA excitotoxicity mouse model: RGC count by H&E histopathology; format: in vivo, C57BL/6); conditions: for RGC #/HPF (400X): H&E, single animals, Group 2
# Protocol: This study was for evaluating the effect of adeno-associated viral (AAV) vectors on retinal ganglion cell protection following damage caused via N-methyl-D-aspartate (NMDA) administration in the mouse. Injection volumes and treatment options can be found in Table 18. Groups 7 and 8 were added to test a higher concentration of MK-801. The tissues for bioanalysis were snap frozen whole instead of being homogenized. The methods of adding IBMX to whole blood were established and clarified. This study was conducted in wild type mice (Mus musculus, C57BL/6).
# Following euthanasia, eyes of elected animals were processed for histological or immunological examination. The ODs of animal 519 (Group 5) and 629 (Group 6) were noted to have a very small lens, blood in the retina, and the eye was filled with a gel-like substance. […] For Groups 1 and 2, immediately following euthanasia, selected eyes were collected into 10% neutral buffered formalin. The eyes were placed in 70% ethanol the following day. The eyes were then processed to paraffin blocks for sectioning. Sagittal sections of each eye (5 μm thickness) were prepared for all animals. At least 3 slides containing a ribbon of approximately 5 sections were collected sequentially. The optic nerve was included in the sectioning. The slides were stained for hematoxylin and eosin (H&E) and examined using light microscopy. Retinal ganglion cells (RGC) were counted (Table 19 and FIG. 9C).
# [3] = tested on: TUJ-1+ and cone arrestin+ cells; experiment: NMDA excitotoxicity mouse model: immunohistochemistry (TUJ-1, cone arrestin); format: in vivo, C57BL/6); conditions: Groups 1 and 2, Day 7, qualitative
# Protocol: All eyes designated for immunohistochemistry (IHC) were enucleated, the approximate site of injection was marked, and eyes were fixed at 4° C. in 4% paraformaldehyde in separately labeled vials overnight. Eyes were then transferred into 0.1M phosphate buffer (PB), brought through a sequential sucrose gradient (10-30%, 1 hour each) followed by embedding in OCT medium and freezing on dry ice.
# Negative controls were performed for the staining cocktail by utilizing only the secondary antibody. Five slides spanning the retina for each eye were stained. Two pictures per retinal cross-section—one at or near the injection site and one from a central region—were taken using an Olympus Bx63 upright fluorescent microscope and cellSens software. […] All groups had clear cone arrestin staining with some TUJ-1+ cells observed (FIG. 12B). No further staining or analysis was performed on cross-sections as the staining was not an informative endpoint.
# [4] = tested on: NIH3T3 cells (cGMP secreted); experiment: EC50 for CNP-Fc constructs, cGMP ELISA of NIH3T3 supernatant; format: cell-based; conditions: NIH3T3, 30 minutes, 1.8 mM IBMX, cGMP secreted by the cells; FIG. 25B
# Protocol: EC50 for CNP-Fc described herein were measured by ELISA. 2.5E+05 NIH3T3 cells/well were plated. […] After 30 minutes, supernatant was collected for cGMP determined via ELISA. FIG. 25A illustrates a standard curve of cGMP.
# [5] = tested on: intraocular pressure (IOP); experiment: Rat partial optic nerve transection (pONT) model: intraocular pressure (Tonolab tonometry); format: in vivo, rat (Dark Agouti)
# Protocol: (§1) Using an experimental rat model of partial optic nerve transection (pONT), effects of Adeno-associated virus (AAV) CNP peptide (AAV-P) and protein Fc fusion (AAV-FP) on: retinal ganglion cell (RGC) apoptosis/stress in vivo was assessed using detection of apoptosing retinal cells (DARC) imaging; intraocular inflammation in vivo using Optical Coherence Tomography (OCT) imaging; intraocular pressure (IOP) in vivo using Tonolab tonometry; RGC survival histologically using immunohistochemistry on retinal whole mounts; and retinal microglial activity histologically using immunohistochemistry on retinal whole mounts.
# (§2) In total, seventy-two male Dark Agouti (DA) rats aged 8-10 weeks were used in this study. The seventy-two animals were randomly divided into 3 categories.
# (§3) Intravitreal injections (IVT, 4 μL) were given under general anesthesia (GA), according to the categories, and administered to the left eye (pONT eye) only once using a 34-gauge Hamilton needle at day 0 after BL imaging. pONT was performed at week 3 in Categories 1 and 2. In Category 3, pONT was performed soon after baseline imaging.
# Partial optic nerve transection (pONT) surgery was performed under GA at week 3 in categories 1 and 2. […]
# IOP. […] Ten IOP readings were collected from each eye of each animal at each time point.
# IOP measurements were performed three times a week at weeks 1, 2, and 4. DARC spots on in vivo images were automatically counted by an algorithm developed and validated in the Cordeiro lab. […] RBPMS^+ RGCs in retinal whole mounts were automatically counted and analyzed by a recently developed and validated algorithm in the Cordeiro lab. […] The morphology of microglia in retinal whole mounts was automatically analyzed by a recently developed and validated machine learning approach in the Cordeiro lab.
# IOP analysis in the both Fc4-CNP36 (FP) and AAV treatment. […] The IOP data was analyzed by subtracting OD (the right eye) from OS (the left eye) in each animal at each time point. […] FIG. 16A illustrates animal IOP monitored during the course of the study. […]
# [6] = tested on: apoptosing retinal cells (RGC apoptosis); experiment: Rat pONT model: DARC imaging of RGC apoptosis; format: in vivo, rat (Dark Agouti)
# Protocol: as §1, §2, §3
# Partial optic nerve transection (pONT) surgery was performed under GA at week 3 in categories 1 and 2. In category 3, pONT surgery was performed on day 0 after BL imaging. […]
# DARC/OCT. under GA, DARC/OCT imaging was conducted at baseline (BL), weeks 1, 2, and 4 in categories 1 and 2. pONT was performed at week 3. […] Briefly, fluorescently labelled annexin 776 (6 mg/mL, 40 μL) was […] administrated 2 hours before DARC imaging and then assessed with a confocal scanning laser ophthalmoscope (cSLO). […]
# IOP measurements were performed three times a week at weeks 1, 2, and 4. DARC spots on in vivo images were automatically counted by an algorithm developed and validated in the Cordeiro lab. […] RBPMS^+ RGCs in retinal whole mounts were automatically counted and analyzed by a recently developed and validated algorithm in the Cordeiro lab. […] The morphology of microglia in retinal whole mounts was automatically analyzed by a recently developed and validated machine learning approach in the Cordeiro lab. […]
# [7] = tested on: retinal ganglion cells (RGC); experiment: Rat pONT model: RGC survival, RBPMS+ RGCs in retinal whole mounts; format: in vivo, rat (Dark Agouti)
# [8] = Rat pONT model: ELISA of Fc4-CNP36 / CNP36 in ocular homogenate and serum; conditions: after IVT of FP protein, terminal samples; FIG. 18
# Protocol: Make a mixture of RIPA and the protease inhibitor was prepared by adding one tablet of protease inhibitor in 10 mL of RIPA buffer. Ocular tissue was measured for the amount of buffer needed. For every 1 mg of tissue, 10 μL of buffer was added. The tube containing the tissue was sonicated for 20 seconds on ice followed by 20 seconds of rest on ice. The sonication and chilling on ice was repeated two more times making 3 cycles in total.
# After complete homogenization, the tubes were placed on an orbital shaker in cold room for two hours. After two hours, the tubes were centrifuged for five minutes at 13,000 rpm. The supernatants were collected and stored store at −80° C.
# Animals were culled at week 4 in categories 1 and 2, and at week 1 in category 3. Before culling, a blood sample (at least 2 mL) was collected by cardiac puncture under the terminal procedure, centrifuged to collect serum, and stored at −80° C.
# The remaining three blocks (blocks 4-6) of animals from each category (36 rats in total) were used for protein analysis. After culling, both eyes from each animal were enucleated and snap-frozen with liquid nitrogen, cryogenically homogenized with mortar and pestle and stored at −80° C. until protein analysis.
# A serial dilution of CNP-Fc can be used in the assay. The detection range of CNP-Fc concentration in this assay can be from 0.78 to 50 ng/mL. […]
Compound,RGC protection by positive control ([1]; 100 μM MK-801),"RGC count, retinal Flatmount (Groups 1 and 2) ([1]; Group 2 ODs, NMDA + MK-801 co-injection IVT Day 0, DAPI and TUJ-1)","RGC count, retinal Flatmount (Groups 3-8) ([1]; Group 8 ODs, NMDA + 100 μM MK-801 co-injection IVT Day 0, DAPI)","P, RGC count NMDA+MK-801-treated (Group 8) versus NMDA-treated (Group 7 OD) eyes ([1]; one-way ANOVA, Dunnett, MK-801 100 μM)","mean RGC count, Group 2 versus Group 1 ([2]; H&E histopathology, ODs and OSs)","RGC #/HPF (400X) ([2]; L eye (OS, control eye, no NMDA))","RGC #/HPF (400X) ([2]; R eye (OD, experimental eye: NMDA + MK-801))",number of TUJ-1+ and cone arrestin+ cells between groups [3],EC50 values (rank order) [4],"effect on IOP ([5]; IVT 2, 20 and 80 μg/eye of affinity purified FP)","dose at which IOP reduction reached maximal ([5]; IVT, range 2-80 μg/eye) [μg/eye]","p, reduction in the IOP ([5]; all FP concentrations (2, 20, 80 μg/eye IVT), Day 1 compared to baseline (Day 0) or Day 7 after pONT)","p, DARC count FP (High) versus AAV-Negative ([6]; 80 μg/eye IVT)","DARC count, FP conditions ([6]; FP 2, 20, 80 μg/eye IVT, baseline subtracted, listed as FP)","DARC count at highest FP dose ([6]; FP (H) = 80 μg/eye IVT, listed as FP)","RGC counts versus FP dose ([7]; FP 2, 20, 80 μg/eye IVT, FIG. 17B)",RGC counts in eyes after treatment ([7]; summary),FP4-CNP36 levels in treated eyes (OS) [8]
C[C@]12N[C@H](Cc3ccccc31)c1ccccc12 [MK-801],fully rescued the NMDA RGC loss phenotype,"9,000±500 cells/mm2","12,000±300 cells/mm2",< 0.0001,no differences in the mean RGC count,RGC #/HPF (400X) = 37; also recorded: RGC #/HPF (400X) = 35; also recorded: RGC #/HPF (400X) = 55; also recorded: RGC #/HPF (400X) = 38,RGC #/HPF (400X) = 41; also recorded: RGC #/HPF (400X) = 31,did not appear to be a difference,,,,,,,,,,
"AMI263: purified fusion protein Fc4-(G4S)4-CNP36 (IgG4 Fc), SEQ ID NO: 135",,,,,,,,,CNP-22 ≡Fc4-CNP36>Aflibercept-Fc4-CNP36>Fc1-CNP36>>Fc4-CNP22,significant effect on IOP reduction,2,< 0.01,0.0078,lowest DARC count; also recorded: dose-dependent effect,complete inhibition of DARC formation; also recorded: significant reduction compared to Sham control,increased with dose increase,RGC counts increased,correlated to the dose amount

# From patent US20250099622A1, “COMPOSITIONS AND METHODS FOR EXPRESSING THERAPEUTICS” (priority 2022, published 2025)
